Test system: whole blood from TB-reactor and BCG-vaccinated animals (IFN-γ response)
Type: cell-based, cattle

Substance | recognition in TB-reactor animals not responding to peptides #42 or #55 | further results
QANLGEAAGTYVAADAAAAS [peptide #55] |  | responder frequency, TB-reactor animals: 36%
SAELPDWLAANRGLAPGGHA [peptide #64] | recognised in TB-reactor animals that failed to respond to peptides #42 or #55 | immunogenicity in BCG-vaccinated animals on re-screen of Sec#1 components: immunogenic in some BCG-vaccinated animals
RNIVNMLHGVRDGLVRDANN [compound 20] | recognised in TB-reactor animals that failed to respond to peptides #42 or #55 | 
LGRNFQVIYEQANAHGQKVQ [peptide #33] | recognised in TB-reactor animals that failed to respond to peptides #42 or #55 | 
Staphylococcal enterotoxin B [SEB, reference compound] |  | IFN-γ response in TB-reactor and BCG-vaccinated animals: all TB-reactor and BCG-vaccinated animals responded
RDVLAAGDFWGGAGSVACQE [peptide #42] |  | responder frequency, TB-reactor animals: 50%
EAEHQAIIRDVLTASDFWGG [compound 29] | recognised in TB-reactor animals that failed to respond to peptides #42 or #55 | 
